According to the CheMixHub viscosity set:
“And” between values parts separate entries of the source, which are not always exact repeats. Equal values may be shown once.

What was measured:
[1] = xn = mol fraction of the nth substance listed; conditions: 101 kPa

CCCCOCCOCCOCCCC
101.3 kPa
Conditions | viscosity [mPa·s]
298.15 K | 2.16
308.15 K | 1.762
318.15 K | 1.408

CCCC[n+]1ccc(C)cc1.N#C[S-]
101 kPa
Conditions | viscosity [mPa·s]
298.15 K | 85.69
308.15 K | 51.75
318.15 K | 33.88

CCCCCCCC[N+](C)(CCCCCCCC)CCCCCCCC.[Cl-]
101 kPa
Conditions | viscosity [mPa·s]
298.15 K | 2391
303.15 K | 1602
308.15 K | 1067
313.15 K | 766.1
318.15 K | 568.9

CCCCCCCCCCCCCC(=O)OCC
100 kPa
Conditions | viscosity [mPa·s]
308.15 K | 3.322
318.15 K | 2.699
323.15 K | 2.451

CSC
Conditions | viscosity [mPa·s]
293.15 K, 101 kPa | 0.307

Fc1c(F)c(F)c(F)c(F)c1F
viscosity [mPa·s]
Conditions | 293.15 K | 298.15 K | 303.15 K | 308.15 K | 313.15 K | 318.15 K | 323.15 K
101 kPa | 0.951 | – | 0.793 | – | 0.664 | – | 0.591
101.33 kPa | 0.9446 | 0.8695 | – | 0.7631 | – | 0.6708 | –

CCCCCCCCCCCCOC(C)=O
Conditions | viscosity [mPa·s]
303.15 K, 101.3 kPa | 3.089

CCn1cc[n+](C)c1.O=C([O-])C(F)(F)C(F)(F)C(F)(F)C(F)(F)F
101 kPa
Conditions | viscosity [mPa·s]
298.15 K | 107.5
308.15 K | 65.87
318.15 K | 43.09

C1CCC(C2CCCCC2)CC1
102 kPa
Conditions | viscosity [mPa·s]
293.15 K | 4.06
303.15 K | 3.18
313.15 K | 2.56
323.15 K | 2.1

CC(=O)[O-].C[N+]1(CC2CO2)CCCC1=O (configuration not stated)
101 kPa
Conditions | viscosity
293.15 K | 6.55 mPa·s
298.15 K | 5.55 mPa·s
303.15 K | 4.77 mPa·s
308.15 K | 4.13 mPa·s and 4.14 mPa·s
313.15 K | 3.62 mPa·s

NCCNCCN
101.33 kPa
Conditions | viscosity [mPa·s]
298.15 K | 5.52
308.15 K | 3.865
318.15 K | 3.048
323.15 K | 2.698

CCOC(=O)Cn1cc[n+](C)c1.[Cl-]
Conditions | viscosity [mPa·s]
298.15 K, 101 kPa | 348.6

CCCCO
Conditions | viscosity
293.15 K, 100 kPa | 2.873 mPa·s and 2.61 mPa·s and 2.868 mPa·s
293.15 K, 101 kPa | 2.929 mPa·s and 2.868 mPa·s
293.15 K, 101.33 kPa | 2.9 mPa·s
298 K, 101.3 kPa | 2.507 mPa·s
298 K, 101.33 kPa | 2.52 mPa·s
298.15 K, 101.3 kPa | 2.442 mPa·s
303 K, 101.33 kPa | 2.095 mPa·s
303.15 K, 101 kPa | 2.121 mPa·s and 2.002 mPa·s and 2.12 mPa·s
303.15 K, 101.3 kPa | 2.129 mPa·s
308 K, 101.3 kPa | 1.903 mPa·s
308.15 K, 101.3 kPa | 1.856 mPa·s
308.15 K, 101.33 kPa | 1.929 mPa·s and 1.949 mPa·s
313 K, 101.3 kPa | 1.62 mPa·s
313.15 K, 101 kPa | 1.7 mPa·s and 1.687 mPa·s
313.15 K, 101.3 kPa | 1.692 mPa·s and 1.817 mPa·s
318 K, 101.3 kPa | 1.456 mPa·s
318.15 K, 100 kPa | 1.563 mPa·s
318.15 K, 101.33 kPa | 1.487 mPa·s
323 K, 100 kPa | 1.215 mPa·s
323 K, 101.3 kPa | 1.334 mPa·s
323.15 K, 101 kPa | 1.361 mPa·s and 1.329 mPa·s
323.15 K, 101.33 kPa | 1.393 mPa·s and 1.393 mPa·s and 1.09 mPa·s

NCCN1CCNCC1
100 kPa
Conditions | viscosity [mPa·s]
298.15 K | 14.48
308.15 K | 11.34
318.15 K | 7.1

CCOC(=O)C(Cl)(Cl)Cl
Conditions | viscosity [mPa·s]
323.15 K, 101 kPa | 1.037

CCCCC(=O)O
Conditions | viscosity [mPa·s]
298.15 K, 101 kPa | 1.97

Cc1cccnc1
Conditions | viscosity [mPa·s]
298.15 K, 101 kPa | 0.8723

NCCNCCN + O
viscosity [mPa·s], [1]
Conditions | 293.15 K | 298.15 K | 303.15 K | 313.15 K | 323.15 K
x1 = 0.0425 | – | 2.44 | 2.06 | 1.55 | 1.23
x1 = 0.0565 | – | – | – | – | 1.615
x1 = 0.0568 | – | 3.46 | 2.88 | 2.07 | 1.6
x1 = 0.1 | 11.17 | – | 7.2 | 4.78 | 3.41
x1 = 0.1999 | 48.86 | – | 24.8 | 14.08 | 8.54
x1 = 0.2999 | 61.11 | – | 30.19 | 16.63 | 10.2
x1 = 0.3997 | 44.08 | – | 23.49 | 13.62 | 8.35
x1 = 0.4997 | 29.78 | – | 16.66 | 10.31 | 6.79
x1 = 0.5997 | 20.36 | – | 12.11 | 7.77 | 5.28
x1 = 0.6996 | 14.64 | – | 9.24 | 6.17 | 4.22
x1 = 0.7992 | 10.95 | – | – | 4.9 | 3.55
x1 = 0.8073 | – | – | – | – | 3.445
x1 = 0.8954 | 8.515 | – | – | – | –
x1 = 0.8989 | 8.48 | – | 5.52 | 4.11 | 3.03

NCCNCCN + CCCCCCCCO
viscosity [mPa·s], [1]
Conditions | 298.15 K | 303.15 K | 308.15 K
x1 = 0.0574 | 8.191 | 6.649 | 5.637
x1 = 0.1135 | 8.77 | 7.063 | 5.975
x1 = 0.1584 | 9.103 | 7.248 | 6.111
x1 = 0.2 | 9.198 | 7.3 | 6.14
x1 = 0.2521 | 9.202 | 7.268 | 6.096
x1 = 0.311 | 9.044 | 7.129 | 5.957
x1 = 0.4024 | 8.532 | 6.792 | 5.691
x1 = 0.5076 | 7.72 | 6.264 | 5.244
x1 = 0.6106 | 6.988 | 5.798 | 4.877
x1 = 0.7085 | 6.366 | 5.286 | 4.493
x1 = 0.8064 | 6.017 | 4.915 | 4.228
x1 = 0.8556 | 5.901 | 4.791 | 4.101
x1 = 0.9033 | 5.791 | 4.679 | 3.999
x1 = 0.9524 | 5.699 | 4.584 | 3.889
